The values below are quoted from earlier work in US11833161B2, “Compositions and methods for treatment of skin infections” (priority 2015, dated 2023).

For data set [1], the system named is warts (verrucae). The note with it: one case, 2 large mosaic verruca; previous treatments by 2 podiatrists and a dermatologist over 14 months.
Data set [2] deals with cutaneous warts. To be noted: meta-analysis of trials, topical treatment of cutaneous warts; range in brackets.

For the compound Vitamin A, the “outcome of previous treatments in the difficult case” value in data set [1] is “unsuccessful”.

For `O=C(O)c1ccccc1O` [salicylic acid], the cure rate in data set [2] was 52% (0-87%).

With `CN/C(=N/CCSCc1nc[nH]c1C)NC#N` [cimetidine], in data set [1], the “outcome of previous treatments in the difficult case” value is “unsuccessful”.
